According to US11083197B2, “Herbicidal composition comprising chromone derivatives and a method for weed control” (INVESTIGACIONES BIOLÓGICAS EN AGROQUÍMICOS ROSARIO S.A., priority 2015, dated 2021):
Where two headings read alike, the source gives them in different places. Each block holds one compound with its values, some of them ahead of it.

Key:
[1] = system: duckweed (Lemna paucicostata); assay: Dose-response bioassay with duckweed; format: in vivo; details: frond area increase between days 1 and 7, read-out: IC50 (μM) ± SE, duckweed growth inhibition
Procedure: Phytotoxic activity of compounds of formula III and IV above as evaluated on duckweed. Duckweed stocks were grown from a single colony consisting of a mother and two daughter fronds in a beaker on modified Hoagland media (Table 3 below). The medium was adjusted to pH 5.5 with 1 M NaOH and filtered through a 0.2 μm filter. Each well of non-pyrogenic polystyrene sterile 6-well plates was filled with 4.950 ml of Hoagland media and, 50 μl of distilled water, 50 μl of acetone in solvent control or 50 μl of acetone containing the appropriate concentration of test compound. The final concentration of acetone was 1% v/v. Two, three-frond colonies from 4 to 5 d-old stock cultures were placed in each well. Plates were placed in an incubator with white light (94.2 μE m^−2 s^−1). Total frond area per well was recorded by the Scanalyzer (LemnaTec, Germany) image analysis system from days 0 to 7. Percentage of increase between days 1 and 7 was determined relative to baseline area at day zero.
Percentage of increase between days 1 and 7 was determined relative to baseline area at day zero. Data represents means of three replicates±SD.
(§1) Statistical Analysis. Data from dose-response experiments were analyzed by a log-logistic model^37-38 using the dose-response curve module^39 of R software version 2.2.1.^40 Concentrations required for 50% germination or growth inhibition relative to control (IC50 values) were obtained from estimated parameters in the regression curves. The standard error (SE) of each estimation is provided. Data from phytotoxicity bioassays in the laboratory and greenhouse, ROS and cell death quantifications were analyzed by ANOVA using the InfoStat statistical software version 2015,^41 and Scheffe's test was employed to compare the means at α=0.05.

[2] = system: lettuce; assay: Phytotoxic effect on lettuce under different conditions of illumination; format: in vivo, Lactuca sativa; details: 1 mM; light versus darkness; 7 days
Procedure: Bioassays were carried out with lettuce in Petri dishes using the commercial standards of each compound. Lettuce seeds were incubated with 4 mL of an aqueous solution of compounds or acetochlor at 1 mM. Lettuce growth was measured at 7 days of incubation.
The results of this test are shown in FIG. 14 where the Left column (diagonal stripes)=Light and the Right column (in black)=Darkness. Acetochlor was included as a reference of pre-emergent herbicide and to get the highest herbicidal effect, all compounds were tested at 1 mM. Data represent means of three replicates±SD. Different letters above the bars indicate significant differences between treatments (p<0.05).

[3] = system: crabgrass (D. sanguinalis) and velvetleaf (A. theophrasti); assay: Greenhouse postemergence spray, 2.0 kg ai/ha; format: in vivo, Digitaria sanguinalis; Abutilon theophrasti; details: for symptoms on leaves after post-emergence spray: 6-8-day-old plants, both weed species
Procedure: Aqueous solutions containing commercial standards of pure compounds of formulas III and IV were prepared and sprayed on crabgrass (D. sanguinalis) and velvetleaf (A. theophrasti). For better dissolution of compounds in water Tween 20 (1% v/v) and acetone (1% v/v) were added to spray solution. For postemergence application 6-8-day-old plants were sprayed, and final rate of compounds was 2.0 kg active ingredient (ai) ha^−1. Plant height and dry weight were measured at 11 days after spray. Results were compared with atrazine at 1.0 kg ai ha^−1.

[4] = system: ryegrass; assay: Postemergence bioassay with ryegrass in Petri dishes; format: in vivo; details: Lolium multiflorum, post-emergence; 500 μM; day 6 (4 days after application); read-out: Growth inhibition (%) as percentage of control
Procedure: Plant length was measured at day 6 (4 days after application of the compounds)
Plant length's axis starts in 5 mm because seeds were pre-incubated in water, so all seedlings were around 5 mm long at the beginning of the treatment.

[5] = system: cucumber cotyledon disks; assay: Photosynthetic efficiency (chlorophyll fluorescence, ETR); format: cell-based; details: after 24 h of incubation in the light (42 h total)
Procedure: The effects of pure compounds of formulas III and IV were evaluated by chlorophyll fluorescence measurements according to Dayan and Zaccaro.^24 Cucumber cotyledon disks were exposed to different dilutions of each furanochromone (10, 30, 100 and 300 μM). Control tissues were exposed to the same solvent as treated tissues but without the test compounds. The cotyledon disks were incubated in darkness for 18 h before exposure to light for 24 h. Photosynthetic quantum yield and electron transport rate (ETR) were measured. ETR values were expressed as percent of the ETR average values observed in control treatments. A time-course experiment was performed by measuring induced fluorescence of cotyledon disks after treatment at 3 h in darkness (start), after 18 h in darkness, after which the samples were placed in the light, and further measurements were made after 6 and 24 h of light exposure. The results of this experiment are shown in FIG. 16 (A: khellin [compound of formula III] and B: visnagin [compound of formula IV]). Three replicates were performed for each experiment. Bars represent, from left to right in each grouping, start, 18 h dark, 6 h light, and 24 h light.

[6] = system: ryegrass (Lolium multiflorum); assay: Dose-response bioassay with ryegrass; format: in vivo; details: 168 h, 7 days
Procedure: A filter paper and 5 lettuce or 10 mg of creeping bentgrass seeds were placed in each well of a 24-well plate. Stock solutions (10×) of test compounds were prepared in acetone. 180 μl of distilled water were added to each well together with 20 μl of stock solution or acetone in solvent control. Final concentration of acetone was 10% v/v. Plates were sealed with Parafilm, and incubated at 26° C. in a growth chamber set at 173 μmol m^−2 s^−1 continuous photosynthetically active radiation. Phytotoxic activity was qualitatively evaluated by visually comparing germination in each well with solvent control at 7 days. A qualitative estimation of phytotoxicity was obtained by using a rating scale of 0 to 5, where 0 was no effect, and 5 was no germination of seeds. This procedure was also used for testing the phytotoxicity of pure compounds on ryegrass. On this experiment 12-well plates were used. 10 seeds were placed per well and final volume was 300 μl in each one. During dose-response bioassays used for IC50 determination, germination percentage and length of plants were measured at 7 days in order to determine the concentration required for 50% germination and growth inhibition (IC50). All experiments were done in triplicate.
Using method described in Example 1, compounds of Formula III and IV above were tested against lettuce and ryegrass.
The percentage of germination and length of plants were determined at 7 days. Data represents means of three replicates±SD. The IC50 values, for both germination and growth inhibition by compounds III and IV on lettuce and ryegrass, were obtained from estimated parameters in the regression curves.
as §1

[7] = read-out: IC50(μM) ± SE to inhibit germination
[8] = read-out: IC50(μM) ± SE to inhibit growth

SMILES: COc1c2ccoc2cc2oc(C)cc(=O)c12 [Formula IV, 4-methoxy-7-methyl-5H-furo[3,2-g]chromen-5-one]
IC50 ([1]; Lemna aequinoctialis): 120 µM
IC50 [1]: 122 ± 28 µM
light dependence of phytotoxicity or herbicidal activity [2]: not a light-dependent process
symptoms on leaves after post-emergence spray [3]: Necrosis symptoms
plant size and biomass respect solvent control ([3]; 11 days after spray): significant reduction of plant size and biomass
inhibition at 500 µM [4]: 66%
reduction of electron transport rate (ETR) ([5]; 100 μM): ~35%
reduction of electron transport rate (ETR) ([5]; 300 μM): ~50%
IC50 [6, 7]: 502 ± 115 µM
IC50 [6, 8]: 214 ± 23 µM

IC50 [6, 7]: 637 ± 112 µM
SMILES: COc1c2occc2c(OC)c2c(=O)cc(C)oc12 [Formula III, 4,9-dimethoxy-7-methyl-5H-furo[3,2-g]chromen-5-one]
IC50 ([1]; Lemna aequinoctialis): 160 µM
IC50 [1]: 162 ± 29 µM
light dependence of phytotoxicity or herbicidal activity [2]: not a light-dependent process
symptoms on leaves after post-emergence spray [3]: Necrosis symptoms
inhibition at 500 µM [4]: 25%
reduction of electron transport rate (ETR) ([5]; 100 μM): ~35%
reduction of electron transport rate (ETR) ([5]; 300 μM): ~50%
IC50 [6, 8]: 244 ± 37 µM
